Experimental findings from patent publication US4061637A, “Certain 4-aryl-5-(4-phenylpiperazino)alkyl-4-thiazolin-2-ones” (priority 1974, dated 1977) are described below.

One series relates to nor-adrenalin. Kind of series: Antagonism towards a lethal dose of nor-adrenalin in the rat (α-adrenolytic activity). Format: in vivo. Conditions: for ED50: po, 1 h, read-out: α-adrenolytic activity lethal NA rat ED50. On the procedure: Antagonism towards a lethal dose of nor-adrenalin in the rat
The animals are treated with a dose of nor-adrenalin (0.5 mg/kg) which is 100% lethal in animals. The activity is calculated by the number of animals protected from death by prior administration of the drug under examination one hour before the agonist. Where possible the ED50 was calculated.

Series [1] can be described thus: Pinching the tail of the mouse (systemic analgesic activity). Format: in vivo. As to conditions: po, 0.5 h; for inhibition in vivo at 200 mg/kg: 200 mg/kg os; for inhibition in vivo at 100 mg/kg: 100 mg/kg os.
Protocol: To evaluate the analgesic activity, the method described by Bianchi and colleagues (Brit. J. Pharmacol., 9, 280, 1954) was followed which consists of applying an arterial pincer to the base of the tail in animals treated orally 30 minutes previously with the drug under examination, observing that the control animals react to the pain by squealing.
Series [2] is described as follows: Acute toxicity under LD50 mouse. As to conditions: in vivo, ip.
Series [3] in a line: Carrageen oedema in the conscious rat (anti-inflammatory activity). Conditions: for ED30: 1 h, ip, one hour before carrageen, read-out: Anti-inflammatory activity carrageenin oedema rat ED30. Format: in vivo. Background: Carrageenan injected into the paw causes an acute inflammation.
Protocol: Anti-inflammatory activity was evaluated by the method of Winter and colleagues (Proc. Soc. Exp. Biol., 111, 544, 1962) by endoperitoneally injecting the product under examination one hour before inducing oedema by injecting 0.05 ml. of a 1% suspension of carrageen (intradermally into the plantar portion of a rear paw).
The difference between the volume of the paw determined plethysmographically one hour before and three hours after the carrageen gives a quantitative estimate of the activity of the product tested. Where possible, the ED30 was calculated.
Series [4] is described as follows: Inhibition of spontaneous motility in the mouse. Conditions: for ED50: po, 0.5 h, read-out: Spontaneous motility inhibition mouse ED50. In kind it is in vivo.
Protocol: This is evaluated by an actophotometric method, which consists of placing the mice, 30 minutes after oral treatment with the drug or the carrier, in a cage provided with a photoelectric cell counter and counting the number of times the photoelectric cell is passed during a 10 minute stay.
Series [5] is described as follows: Antagonism towards electric shock convulsions in the mouse. Conditions: po, 0.5 h, read-out: Anti-convulsion activity, electric shock, mouse, % att.; for inhibition in vivo at 200 mg/kg: 200 mg/kg os; for inhibition in vivo at 100 mg/kg: 100 mg/kg os. Format: in vivo.
Protocol: This is evaluated by observing the protection given by pretreatment with the drug (30 minutes) against tonic convulsions obtained by applying a 35 volt current to the eyeballs.
A short description of series [6]: Ulcers by constriction (stress) in the rat. In kind it is in vivo. As to conditions: 4 h; for responders at 30 mg/kg / responders at 10 mg/kg: read-out: Anti-ulcer activity, ulcers by stress in the rat, Protected rats %; for inhibition in vivo at 30 mg/kg / inhibition in vivo at 10 mg/kg: read-out: Anti-ulcer activity, ulcers by stress in the rat, Reduction in ulcers %; for responders at 10 mg/kg / inhibition in vivo at 10 mg/kg: 10 mg/kg ip.
Protocol: The method described by Rossi and colleagues (Compt. Rend. Soc. Biol., 150, 2124, 1956) was followed in which the formation of gastric ulcers is induced by immobilising the animal, in a state of fast for 48 hours, in a net for a period of 4 hours.
The protection given by treatment with the drug under examination before the beginning of the constriction period is evaluated by counting both the ulcers and the number of subjects without ulcers.

The nature of series [7]: Cataleptic activity in the mouse. In kind it is in vivo. Conditions: for ED50: po, read-out: Cataleptic activity mouse ED50.
The mark [8] stands for this setting: mouse, os, 30 minutes after treatment.
Setting [9] is: rat, os, one hour before nor-adrenalin 0.5 mg/kg.

Where a name gives a salt, the structure may show the parent alone. Read-outs that look alike come from different tables or passages of the source.

In general, ED50 refers to the dose at which the effect has come halfway, by size or by number of responders. A word on the LD50: it is the dose at which mortality reaches 50%. Read a high LD50 as lower toxicity. On to `O=c1[nH]c(-c2ccc(F)cc2)c(CCN2CCN(c3ccccc3)CC2)s1` [LR 599, 4-p-fluorophenyl-5-β-(N'-phenylpiperazino)ethyl-4-thiazolin-2-one], for which the 50% effective dose (ED50) stood at 45 mg/kg in the series on nor-adrenalin (Rattus norvegicus); 69.2 mg/kg in series [4] (setting [8]); 200 mg/kg in series [7] (mouse, os). The inhibition in vivo at 200 mg/kg in series [1] (mouse, 30 minutes) amounted to 30%; in series [5] (mouse, 35 volt) it was 0%. Besides, in series [2], the LD50 was over 1000 mg/kg. For the same molecule, the “Anti-inflammatory activity carrageenin oedema rat, percentage activity (ED30 lacking)” value in series [3] (200 mg/kg ip) is given as 20%. Moreover, the responders at 30 mg/kg in series [6] (rat, 30 mg/kg ip) came to 20%. In series [6] (rat, 30 mg/kg ip), the inhibition in vivo at 30 mg/kg was found to be 48%.
On to `O=c1[nH]c(-c2ccc(F)cc2)c(CCN2CCC(O)(c3ccc(Cl)cc3)CC2)s1` [LR 613, 4-p-fluorophenyl-5-β-[(4'-hydroxy-4'-p-chlorophenyl)-piperidino]-ethyl-4-thiazolin-2-one hydrochloride], for which the “α-adrenolytic activity lethal NA rat, percentage activity (ED50 lacking)” value in the series on nor-adrenalin (rat, 15 mg/kg os) stood at 20%. The inhibition in vivo at 60 mg/kg in series [1] (Mus musculus, read-out: Systemic analgesic activity, tail pinching in mouse, %) was found to be 10%; in series [5] (Mus musculus), 10%. This molecule also had an LD50 in series [2] of 300 mg/kg. Further, the “Anti-inflammatory activity carrageenin oedema rat, percentage activity (ED30 lacking)” value in series [3] (60 mg/kg ip) came to 15.2%. Further, the values for the ED50 in series [4] (Mus musculus) and in series [7] (Mus musculus) were 18 mg/kg and 32.4 mg/kg, respectively. Also, the responders at 30 mg/kg in series [6] (Rattus norvegicus, ip) turned out to be 60%. For the same molecule, in series [6] (Rattus norvegicus, ip), the inhibition in vivo at 30 mg/kg amounted to 80%.
On to `CN(CCc1ccccc1)CCc1sc(=O)[nH]c1-c1ccc(F)cc1.O=C(O)/C=C\C(=O)O` [LR 616, 4-p-fluorophenyl-5-β-(N-methylphenylethylamino)ethyl-4-thiazolin-2-one maleate], for which the ED50 in the series with nor-adrenalin (setting [9]) came out at 5.5 mg/kg; in series [4] (setting [8]), 40 mg/kg. The inhibition in vivo at 40 mg/kg is 0% in series [1] (mouse, 40 mg/kg os, 30 minutes) and 0% in series [5] (mouse, 40 mg/kg os, 35 volt). In series [2], the 50% lethal dose (LD50) was 225 mg/kg. The ED30 in series [3] is 54 mg/kg. The responders at 30 mg/kg in series [6] (rat, 30 mg/kg ip) came to 10%. For the same molecule, the inhibition in vivo at 30 mg/kg in series [6] (rat, 30 mg/kg ip) turned out to be 0%. Besides, in series [7] (mouse, 40 mg/kg os), the “Cataleptic activity mouse, percentage activity (ED50 lacking)” value amounted to 0%.
`CN(CCc1ccccc1)CCc1sc(=O)[nH]c1-c1ccc(Cl)cc1.O=C(O)/C=C\C(=O)O` [LR 628, 4-p-chlorophenyl-5-β-(N-methylphenylethylamino)ethyl-4-thiazolin-2-one maleate]: the 50% effective dose (ED50) in the series on nor-adrenalin (setting [9]) worked out at 8 mg/kg; in series [4] (setting [8]) it was 100 mg/kg. Moreover, the inhibition in vivo at 100 mg/kg stood at 0% in series [1] (mouse, 30 minutes) and 0% in series [5] (mouse, 35 volt). This molecule also gave an LD50 in series [2] of 400 mg/kg. The ED30 in series [3] was 35 mg/kg. Moreover, in series [6] (rat, 30 mg/kg ip), the responders at 30 mg/kg stood at 0%. In addition, in series [6] (rat, 30 mg/kg ip), the inhibition in vivo at 30 mg/kg came out at 0%.
Regarding `CN(CCc1ccccc1)CCc1sc(=O)[nH]c1-c1ccccc1.O=C(O)/C=C\C(=O)O` [LR 630, 4-phenyl-5-β-(N-methylphenylethylamino)ethyl-4-thiazolin-2-one maleate], the median effective dose (ED50) in the series with nor-adrenalin (setting [9]) turned out to be 16 mg/kg; in series [4] (setting [8]), 60 mg/kg; in series [7] (mouse, os), 180 mg/kg. In addition, the inhibition in vivo at 180 mg/kg in series [1] (mouse, 180 mg/kg os, 30 minutes) worked out at 0%; in series [5] (mouse, 180 mg/kg os, 35 volt), 10%. Also, the LD50 in series [2] worked out at 750 mg/kg. Also, the ED30 in series [3] was found to be 145 mg/kg. Also, the responders at 30 mg/kg in series [6] (rat, 30 mg/kg ip) turned out to be 10%. Further, the inhibition in vivo at 30 mg/kg in series [6] (rat, 30 mg/kg ip) came to 0%.
For `O=c1[nH]c(-c2ccccc2)c(CCN2CCN(c3ccccc3)CC2)s1` [LR 637, 4-phenyl-5-β-(N'-phenylpiperazino)ethyl-4-thiazolin-2-one], the ED50 in the series on nor-adrenalin (Rattus norvegicus) was 18 mg/kg; in series [4] (setting [8]), 200 mg/kg; in series [7] (mouse, os), 200 mg/kg. Moreover, the inhibition in vivo at 200 mg/kg in series [1] (mouse, 30 minutes) came out at 30%; in series [5] (mouse, 35 volt), 20%. Moreover, the LD50 in series [2] was 1000 mg/kg. For the same molecule, the “Anti-inflammatory activity carrageenin oedema rat, percentage activity (ED30 lacking)” value in series [3] (200 mg/kg ip) was found to be 11.6%. Moreover, the responders at 10 mg/kg in series [6] (rat) amounted to 57%. Besides, in series [6] (rat), the inhibition in vivo at 10 mg/kg came to 86%.
In the case of `O=c1[nH]c(-c2ccc(Cl)cc2)c(CCN2CCN(c3ccccc3)CC2)s1` [LR 638, 4-p-chlorophenyl-5-β-(N'-phenylpiperazino)ethyl-4-thiazolin-2-one], in the series with nor-adrenalin (rat, 50 mg/kg os), the “α-adrenolytic activity lethal NA rat, percentage activity (ED50 lacking)” value is 0%. Also, the inhibition in vivo at 200 mg/kg stood at 10% in series [1] (mouse, 30 minutes) and 10% in series [5] (mouse, 35 volt). Further, in series [2], the LD50 is over 1000 mg/kg. Moreover, the “Anti-inflammatory activity carrageenin oedema rat, percentage activity (ED30 lacking)” value in series [3] (200 mg/kg ip) was determined as 14%. Moreover, the ED50 stood at 200 mg/kg in series [4] (setting [8]) and 200 mg/kg in series [7] (mouse, os). The responders at 10 mg/kg in series [6] (rat) is 60%. In addition, the inhibition in vivo at 10 mg/kg in series [6] (rat) was 63%.
On to `COc1ccc(-c2[nH]c(=O)sc2CCN2CCN(c3ccccc3)CC2)cc1` [LR 639, 4-p-methoxyphenyl-5-β-(N'-phenylpiperazino)ethyl-4-thiazolin-2-one], for which the ED50 turned out to be 45 mg/kg with nor-adrenalin (Rattus norvegicus); 33 mg/kg in series [4] (setting [8]); 88 mg/kg in series [7] (mouse, os). For the same molecule, the inhibition in vivo at 200 mg/kg in series [1] (mouse, 30 minutes) was determined as 0%; in series [5] (mouse, 35 volt), 0%. This molecule also returned an LD50 in series [2] of over 1000 mg/kg. Moreover, the “Anti-inflammatory activity carrageenin oedema rat, percentage activity (ED30 lacking)” value in series [3] (200 mg/kg ip) is on record as 8.1%. Further, the responders at 10 mg/kg in series [6] (rat) was 30%. For the same molecule, the inhibition in vivo at 10 mg/kg in series [6] (rat) was 28%.
For the molecule `O=c1[nH]c(-c2ccc(F)cc2)c(CCN2CCC3(CC2)OCCCCO3)s1` [LR 648, 4-p-fluorophenyl-5-β-[7,12-dioxa-3-azaspiro[5,6]-dodec-3-yl]-ethyl-4-thiazolin-2-one hydrochloride], the “α-adrenolytic activity lethal NA rat, percentage activity (ED50 lacking)” value in the series on nor-adrenalin (rat, 7 mg/kg os) is 0%. In series [1] (mouse, 26 mg/kg os, 30 minutes), this molecule displayed an inhibition in vivo at 26 mg/kg of 0%. Moreover, the LD50 in series [2] was 125 mg/kg. Further, the “Spontaneous motility inhibition mouse, percentage activity (ED50 lacking)” value in series [4] (mouse, 26 mg/kg os) worked out at 20%. In series [5] (mouse, 26 mg/kg os, 35 volt), the inhibition in vivo at 26 mg/kg came out at 20%. In series [6] (rat), the responders at 10 mg/kg came to 10% and the inhibition in vivo at 10 mg/kg worked out at 32%.
On to `Cn1c(-c2ccc(F)cc2)c(CCN2CCN(c3ccccc3)CC2)sc1=O` [LR 652, 3-methyl-4-p-fluorophenyl-5-β-(N'-phenylpiperazino)-ethyl-4-thiazolin-2-one], for which the median effective dose (ED50) in the series on nor-adrenalin (Rattus norvegicus) was determined as 13.3 mg/kg; in series [4] (setting [8]), 23 mg/kg; in series [7] (mouse, os), 52.4 mg/kg. The inhibition in vivo at 200 mg/kg in series [1] (mouse, 30 minutes) is 0%; in series [5] (mouse, 35 volt), 40%. Besides, in series [2], the LD50 is over 1000 mg/kg. The ED30 in series [3] was determined as 163 mg/kg. The responders at 30 mg/kg in series [6] (rat, 30 mg/kg ip) was 50%. For the same molecule, the inhibition in vivo at 30 mg/kg in series [6] (rat, 30 mg/kg ip) was 68%.
Take `CC(=O)n1c(-c2ccc(F)cc2)c(CCN2CCN(c3ccccc3)CC2)sc1=O` [LR 653, 3-acetyl-4-p-fluorophenyl-5-β-(N'-phenylpiperazino)-ethyl-4-thiazolin-2-one]: the ED50 with nor-adrenalin (Rattus norvegicus) came to 12.8 mg/kg; in series [4] (setting [8]), 11.6 mg/kg; in series [7] (mouse, os) it was 80 mg/kg. Also, the inhibition in vivo at 100 mg/kg in series [1] (mouse, 30 minutes) amounted to 20%; in series [5] (mouse, 35 volt), 20%. This molecule returned a 50% lethal dose (LD50) in series [2] of 420 mg/kg. Besides, the “Anti-inflammatory activity carrageenin oedema rat, percentage activity (ED30 lacking)” value in series [3] (100 mg/kg ip) is 25.4%.
Take `O=c1[nH]c(-c2ccc(Cl)cc2)c(CN2CCCCC2)s1` [LR 659, 4-p-chlorophenyl-5-piperidinomethyl-4-thiazolin-2-one]: the inhibition in vivo at 200 mg/kg in series [1] (mouse, 30 minutes) turned out to be 0%. This molecule showed an LD50 in series [2] of over 1000 mg/kg. In addition, the inhibition in vivo at 200 mg/kg in series [5] (mouse, 35 volt) amounted to 30%. In series [6] (rat), the responders at 10 mg/kg amounted to 50% and the inhibition in vivo at 10 mg/kg amounted to 50%.
As to `O=c1[nH]c(-c2ccc(Cl)cc2)c(CN2CCN(c3ccccc3)CC2)s1` [LR 660, 4-p-chlorophenyl-5-(N'-phenylpiperazino)methyl-4-thiazolin-2-one], in series [2], the 50% lethal dose (LD50) was over 1000 mg/kg. In series [4] (setting [8]), the 50% effective dose (ED50) amounted to 100 mg/kg. In series [5] (mouse, 35 volt), the inhibition in vivo at 200 mg/kg was 20%. In series [6] (rat), the responders at 10 mg/kg turned out to be 50% and the inhibition in vivo at 10 mg/kg came to 50%.
